Source: the supplement of paper PMC11451515

Assays:
Details in all cases: 48 h
SEM cells [1] = assay: AUC of viability dose-response curve (% viability x log10 dose units); higher = less sensitive
How it was run: (§1)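 Leukemia cells adapted to each medium (500 or 1000 cells/well, 1536-well plates) were exposed to library compounds in DMSO for 48 h at 37°C at 11 threefold doses, 47 μM to 0.79 nM. Luminescence by CellTiter-Glo One was normalised per plate to DMSO and cell-free wells, then fitted with a four-parameter log-logistic curve on log10 dose. Curves above full viability were scaled and quality-control failures removed before area under the curve was integrated by trapezoidal rule.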

P12-Ichikawa [2] = assay: as above
How it was run: as §1

NOMO1 [3] = assay: as above
How it was run: as §1

SEM cells [4] = assay: cell viability relative to DMSO control; higher = less cytotoxic
How it was run: (§2)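 Viability was expressed as a per-plate percentage of DMSO wells, with cell-free wells as background. Leukemia cells (NOMO1 or SEM at 500 cells/well, P12-Ichikawa at 1000 cells/well) were adapted for at least four passages in each medium and seeded in 1536-well plates (5 μl). Library compounds in DMSO were pin-dosed over an 11-point threefold series from 47 μM to 0.79 nM, and CellTiter-Glo One luminescence was read after 48 h at 37°C.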

P12-Ichikawa [5] = assay: as above
How it was run: as §2

NOMO1 [6] = assay: as above
How it was run: as §2

O=C(O)c1ccc(-n2nc(-c3ccccc3O)nc2-c2ccccc2O)cc1
AUC of viability dose-response curve
Details	NOMO1 [3]	P12-Ichikawa [2]	SEM cells [1]
HPLM + 10% dialyzed FBS	441	433	427
RPMI 5 mM glucose + 10% FBS	442	422	408
RPMI 5 mM glucose + 10% dialyzed FBS	408	422	415

cell viability [%]
Details	NOMO1 [6]	P12-Ichikawa [5]	SEM cells [4]
HPLM + 10% dialyzed FBS, 0.000781 µM	90	96.8	86.4
HPLM + 10% dialyzed FBS, 0.00234 µM	97.1	114	93
HPLM + 10% dialyzed FBS, 0.00702 µM	111	104	85.3
HPLM + 10% dialyzed FBS, 0.0211 µM	90.6	107	92
HPLM + 10% dialyzed FBS, 0.0632 µM	108	104	90.9
HPLM + 10% dialyzed FBS, 0.19 µM	113	108	94.6
HPLM + 10% dialyzed FBS, 0.569 µM	95.4	108	96.4
HPLM + 10% dialyzed FBS, 1.71 µM	86.4	99.9	98
HPLM + 10% dialyzed FBS, 5.12 µM	91.2	82	101
HPLM + 10% dialyzed FBS, 15.4 µM	74.7	70	82.1
HPLM + 10% dialyzed FBS, 46.1 µM	44.4	48.9	43
RPMI 5 mM glucose + 10% FBS, 0.000781 µM	94.9	82.8	80.7
RPMI 5 mM glucose + 10% FBS, 0.00234 µM	92.5	94.8	76.6
RPMI 5 mM glucose + 10% FBS, 0.00702 µM	93.5	107	86.7
RPMI 5 mM glucose + 10% FBS, 0.0211 µM	94	99.8	86.8
RPMI 5 mM glucose + 10% FBS, 0.0632 µM	104	102	100
RPMI 5 mM glucose + 10% FBS, 0.19 µM	96.3	104	96.9
RPMI 5 mM glucose + 10% FBS, 0.569 µM	93.5	101	93.3
RPMI 5 mM glucose + 10% FBS, 1.71 µM	103	104	93.7
RPMI 5 mM glucose + 10% FBS, 5.12 µM	96	73.3	108
RPMI 5 mM glucose + 10% FBS, 15.4 µM	90.5	53.3	66
RPMI 5 mM glucose + 10% FBS, 46.1 µM	29.8	29.3	24.9
RPMI 5 mM glucose + 10% dialyzed FBS, 0.000781 µM	94.3	86.7	77.6
RPMI 5 mM glucose + 10% dialyzed FBS, 0.00234 µM	103	103	76
RPMI 5 mM glucose + 10% dialyzed FBS, 0.00702 µM	96.4	105	91
RPMI 5 mM glucose + 10% dialyzed FBS, 0.0211 µM	89.2	96.2	98.1
RPMI 5 mM glucose + 10% dialyzed FBS, 0.0632 µM	87	95.5	95.5
RPMI 5 mM glucose + 10% dialyzed FBS, 0.19 µM	88.4	102	108
RPMI 5 mM glucose + 10% dialyzed FBS, 0.569 µM	89.5	102	102
RPMI 5 mM glucose + 10% dialyzed FBS, 1.71 µM	94.3	96.7	102
RPMI 5 mM glucose + 10% dialyzed FBS, 5.12 µM	79.5	79.7	99.1
RPMI 5 mM glucose + 10% dialyzed FBS, 15.4 µM	68	55.7	58.8
RPMI 5 mM glucose + 10% dialyzed FBS, 46.1 µM	24.2	22.2	19.4
